Our source for the EC50 values is patent US11072612B2, “NLRP3 modulators” (INNATE TUMOR IMMUNITY, INC., priority 2016, dated 2021).

Holding throughout (format): cell-based
One assay has as its target T1, TLR7 (Homo sapiens, UniProt Q9NYK1).
T1 sequence (Q9NYK1 27-1049): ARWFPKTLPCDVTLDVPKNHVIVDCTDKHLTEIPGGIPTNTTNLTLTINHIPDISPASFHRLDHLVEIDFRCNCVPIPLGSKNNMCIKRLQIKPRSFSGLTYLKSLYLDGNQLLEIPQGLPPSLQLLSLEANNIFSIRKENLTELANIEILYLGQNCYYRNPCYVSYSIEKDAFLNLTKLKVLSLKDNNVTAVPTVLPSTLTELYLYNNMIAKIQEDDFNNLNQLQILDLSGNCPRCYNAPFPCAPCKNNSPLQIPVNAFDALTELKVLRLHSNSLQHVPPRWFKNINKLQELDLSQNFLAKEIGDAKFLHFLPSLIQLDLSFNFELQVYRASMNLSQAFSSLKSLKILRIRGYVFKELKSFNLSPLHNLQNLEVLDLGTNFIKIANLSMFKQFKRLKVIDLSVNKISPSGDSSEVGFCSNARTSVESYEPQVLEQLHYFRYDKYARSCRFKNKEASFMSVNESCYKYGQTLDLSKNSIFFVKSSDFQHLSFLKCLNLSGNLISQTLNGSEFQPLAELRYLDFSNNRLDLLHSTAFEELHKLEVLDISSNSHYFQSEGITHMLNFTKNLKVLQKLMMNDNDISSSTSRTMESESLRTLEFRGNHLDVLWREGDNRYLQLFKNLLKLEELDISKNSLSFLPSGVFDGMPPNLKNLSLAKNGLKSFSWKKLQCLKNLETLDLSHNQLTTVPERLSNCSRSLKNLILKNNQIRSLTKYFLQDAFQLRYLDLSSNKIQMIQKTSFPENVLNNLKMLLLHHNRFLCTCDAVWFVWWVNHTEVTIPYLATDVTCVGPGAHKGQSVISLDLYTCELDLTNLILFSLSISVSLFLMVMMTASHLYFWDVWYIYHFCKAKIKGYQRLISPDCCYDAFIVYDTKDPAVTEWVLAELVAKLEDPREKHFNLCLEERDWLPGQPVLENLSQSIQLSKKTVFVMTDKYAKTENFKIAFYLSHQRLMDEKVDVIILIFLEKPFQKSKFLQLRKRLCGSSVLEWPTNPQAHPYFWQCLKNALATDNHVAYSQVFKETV
As to the kind of experiment: TLR7 EC50 assay. The conditions noted are these: Table 2.

The target in another assay is T2, TLR8 (Homo sapiens, UniProt Q9NR97).
T2 sequence (Q9NR97 27-1041): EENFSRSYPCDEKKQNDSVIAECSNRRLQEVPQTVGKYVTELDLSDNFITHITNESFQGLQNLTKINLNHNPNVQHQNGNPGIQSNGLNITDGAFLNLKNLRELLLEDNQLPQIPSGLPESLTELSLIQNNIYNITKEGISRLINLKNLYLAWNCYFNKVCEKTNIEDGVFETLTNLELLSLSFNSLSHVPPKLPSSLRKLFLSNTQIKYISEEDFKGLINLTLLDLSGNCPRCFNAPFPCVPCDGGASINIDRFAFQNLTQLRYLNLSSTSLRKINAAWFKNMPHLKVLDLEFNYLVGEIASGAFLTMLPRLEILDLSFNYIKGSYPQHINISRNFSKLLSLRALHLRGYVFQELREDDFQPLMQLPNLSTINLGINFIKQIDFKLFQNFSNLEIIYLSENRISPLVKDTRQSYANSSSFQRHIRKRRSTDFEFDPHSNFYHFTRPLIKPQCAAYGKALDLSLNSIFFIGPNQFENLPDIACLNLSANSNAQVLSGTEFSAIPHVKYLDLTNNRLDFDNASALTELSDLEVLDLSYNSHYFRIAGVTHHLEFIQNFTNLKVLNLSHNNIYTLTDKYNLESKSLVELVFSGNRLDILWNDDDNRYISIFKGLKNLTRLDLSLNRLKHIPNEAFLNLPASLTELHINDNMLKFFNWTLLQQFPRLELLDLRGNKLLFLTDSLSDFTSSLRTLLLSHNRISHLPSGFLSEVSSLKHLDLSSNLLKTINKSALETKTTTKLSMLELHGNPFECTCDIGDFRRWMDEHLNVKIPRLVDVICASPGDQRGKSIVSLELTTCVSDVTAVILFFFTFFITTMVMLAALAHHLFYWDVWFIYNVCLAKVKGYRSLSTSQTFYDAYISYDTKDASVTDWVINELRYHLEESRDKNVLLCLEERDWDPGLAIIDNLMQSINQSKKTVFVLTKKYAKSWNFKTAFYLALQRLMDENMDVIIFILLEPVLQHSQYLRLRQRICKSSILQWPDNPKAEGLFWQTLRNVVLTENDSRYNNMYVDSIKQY
As to the kind of experiment: TLR8 EC50 assay. The following applies: Table 2.

For a further assay, the target named is T3, hNLRP3 (Homo sapiens, UniProt Q96P20).
T3 construct: THP-1 cells were purchased from the American Type Culture Collection; host or cells: THP-1 cells, PMA-differentiated
As to the kind of experiment: hNLRP3 agonist assay: IL-1β production in PMA-differentiated THP-1 cells (ELISA). The conditions noted are these: Table 2, 4 hours, IL-1β by ELISA. As to the method: THP-1 cells were purchased from the American Type Culture Collection and sub-cultured according to instructions from the supplier. Prior to experiments, cells were cultured in RPMI 1640 containing 10% heat inactivated FBS, penicillin (100 units/ml) and streptomycin (100 μg/ml), and maintained in log phase prior to experimental setup. Prior to the experiment THP-1 were treated with PMA (Phorbol 12-myristate 13-acetate) (10 μg/ml) for 24 hours. The day of the experiment the media was removed and attaching cells were treated with trypsin for 2 minutes, cells were then collected, washed with PBS (phosphate buffer saline), spin down, resuspended in 2% heat inactivated FBS with RPMI at a concentration of 1×10^6 cells/ml, and 100 μl was plated in a 96 well plate. Cells were incubated with compounds for 4 hours. Cell free supernatant was collected and the production of IL-1β was evaluated by ELISA. Compounds were dissolved in dimethyl sulfoxide (DMSO) and added to the culture medium to achieve desired concentration (e.g. 100, 30, 10, 3, 1, 0.3 or 0.1 μM). A vehicle only control was run concurrently with each experiment. Final DMSO concentration was 1%.

T3 sequence (Q96P20 whole entry): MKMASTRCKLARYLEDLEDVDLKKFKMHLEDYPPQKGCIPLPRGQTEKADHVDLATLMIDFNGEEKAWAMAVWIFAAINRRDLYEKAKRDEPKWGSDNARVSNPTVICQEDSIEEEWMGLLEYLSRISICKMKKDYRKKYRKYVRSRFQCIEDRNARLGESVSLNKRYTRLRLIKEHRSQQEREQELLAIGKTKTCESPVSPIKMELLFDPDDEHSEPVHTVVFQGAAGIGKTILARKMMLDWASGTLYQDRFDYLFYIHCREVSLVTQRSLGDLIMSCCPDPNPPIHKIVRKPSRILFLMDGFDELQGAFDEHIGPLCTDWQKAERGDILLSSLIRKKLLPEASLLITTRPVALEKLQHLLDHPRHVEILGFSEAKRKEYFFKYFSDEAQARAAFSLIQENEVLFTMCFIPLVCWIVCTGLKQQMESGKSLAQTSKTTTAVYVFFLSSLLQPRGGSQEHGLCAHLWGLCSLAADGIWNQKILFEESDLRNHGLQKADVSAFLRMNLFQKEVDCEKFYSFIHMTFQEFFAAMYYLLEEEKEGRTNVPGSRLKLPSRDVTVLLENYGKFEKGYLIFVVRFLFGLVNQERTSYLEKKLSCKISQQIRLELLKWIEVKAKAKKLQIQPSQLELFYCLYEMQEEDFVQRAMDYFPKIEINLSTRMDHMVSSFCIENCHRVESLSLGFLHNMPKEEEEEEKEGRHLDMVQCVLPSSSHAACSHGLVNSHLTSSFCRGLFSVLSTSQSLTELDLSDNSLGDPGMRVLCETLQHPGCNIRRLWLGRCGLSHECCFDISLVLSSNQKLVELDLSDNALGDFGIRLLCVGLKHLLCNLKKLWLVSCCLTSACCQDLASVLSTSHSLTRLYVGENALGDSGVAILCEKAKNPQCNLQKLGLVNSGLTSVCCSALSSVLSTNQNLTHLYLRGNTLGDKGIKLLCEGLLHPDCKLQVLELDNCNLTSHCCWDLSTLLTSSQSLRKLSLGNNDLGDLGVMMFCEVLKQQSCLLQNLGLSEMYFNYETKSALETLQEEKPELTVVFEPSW

As for `Nc1nc2cc(Br)ccc2c2[nH]c([C@H]3CC[C@@H](O)CC3)nc12` [Compound 122], the values for the EC50 at TLR7, at TLR8 and on hNLRP3 were greater than 100 µM, greater than 100 µM and 1 to 20 µM, respectively.

With `Cc1cc(C)n(-c2ccc3c(c2)nc(N)c2nc(CCCO)[nH]c23)n1` [Compound 194, 3-[4-amino-7-(3,5-dimethylpyrazol-1-yl)-1H-imidazo[4,5-c]quinolin-2-yl]propan-1-ol], the figures for the EC50 on TLR7, on TLR8 and at hNLRP3 were 20 to 100 µM, greater than 100 µM and 20 to 100 µM, respectively.

As to `Nc1nc2cc(-c3cncnc3)ccc2c2[nH]c(CCCO)nc12` [Compound 188, 3-(4-amino-7-pyrimidin-5-yl-1H-imidazo[4,5-c]quinolin-2-yl)propan-1-ol], the EC50 is greater than 100 µM at TLR7, greater than 100 µM at TLR8 and 20 to 100 µM at hNLRP3.

Regarding `COc1cncc(-c2ccc3c(c2)nc(N)c2nc(CCCO)[nH]c23)c1` [Compound 175, 3-[4-amino-7-(5-methoxypyridin-3-yl)-1H-imidazo[4,5-c]quinolin-2-yl]propan-1-ol], the EC50 at TLR7, at TLR8 and at hNLRP3 was greater than 100 µM each time.

Turning to `CC(C(=O)O)c1ccc2c(c1)nc(N)c1nc(CCCO)[nH]c12` (stereo not drawn) [Compound 117], the EC50 at TLR7 is greater than 100 µM; on TLR8, greater than 100 µM; on hNLRP3, 1 to 20 µM.

Regarding `Nc1nc2cc(-c3ccc(O)nc3)ccc2c2[nH]c(CCCO)nc12` [Compound 176, 5-[4-amino-2-(3-hydroxypropyl)-1H-imidazo[4,5-c]quinolin-7-yl]pyridin-2-ol], the EC50 at TLR7, on TLR8 and on hNLRP3 was greater than 100 µM each time.

As for `CCc1ccc2c(c1)nc(N)c1nc(CCCO)[nH]c12` [Compound 162, 3-(4-amino-7-ethyl-1H-imidazo[4,5-c]quinolin-2-yl)propan-1-ol], the results for the concentration giving a half-maximal response (EC50) at TLR7, on TLR8 and on hNLRP3 were 20 to 100 µM, 20 to 100 µM and 1 to 20 µM, respectively.

On to `CCNC(C)c1nc2c(N)nc3cc(-c4cc[nH]n4)ccc3c2[nH]1` (stereo not drawn) [Compound 240], for which the EC50 on TLR7 was greater than 100 µM; at TLR8, greater than 100 µM; at hNLRP3, 1 to 20 µM.

For the compound `CS(=O)(=O)N1CCC(c2nc3c(N)nc4cc(-n5cccn5)ccc4c3[nH]2)CC1` [Compound 114], the EC50 is greater than 100 µM at TLR7, greater than 100 µM on TLR8 and 1 to 20 µM on hNLRP3.

Regarding `COc1ccc(-c2ccc3c(c2)nc(N)c2nc(CCCO)[nH]c23)cc1` [Compound 211, 3-[4-amino-7-(4-methoxyphenyl)-1H-imidazo[4,5-c]quinolin-2-yl]propan-1-ol], the half-maximal effective concentration (EC50) at TLR7, on TLR8 and on hNLRP3 was greater than 100 µM each time.

`CC(=O)NCCCn1c(C2CCN(C(=O)c3ccccc3)CC2)nc2c(N)nc3cc(Br)ccc3c21` [Compound 227]: the EC50 at TLR7 is greater than 100 µM; on TLR8, greater than 100 µM; at hNLRP3, 20 to 100 µM.

In the case of `Nc1nc2cc(-n3cccn3)ccc2c2[nH]c(CCCO)nc12` [Compound 178, 3-(4-amino-7-pyrazol-1-yl-1H-imidazo[4,5-c]quinolin-2-yl)propan-1-ol], the concentration giving a half-maximal response (EC50) is greater than 100 µM at TLR7, 20 to 100 µM at TLR8 and no more than 1 µM on hNLRP3.

Turning to `Nc1nc2cc(N3CCCC3)ccc2c2[nH]c(CCCO)nc12` [Compound 166, 3-(4-amino-7-pyrrolidin-1-yl-1H-imidazo[4,5-c]quinolin-2-yl)propan-1-ol], the EC50 at TLR7, on TLR8 and on hNLRP3 was greater than 100 µM each time.

As to `Nc1nc2cc(-c3ccccc3)ccc2c2[nH]c(C3CCNCC3)nc12` [Compound 222], the figures for the EC50 on TLR7, on TLR8 and at hNLRP3 were greater than 100 µM, greater than 100 µM and 1 to 20 µM, respectively.

Consider `Nc1nc2ccccc2c2[nH]c(C3COC3)nc12` [Compound 129], for which the results for the half-maximal effective concentration (EC50) on TLR7, at TLR8 and on hNLRP3 were greater than 100 µM, greater than 100 µM and 20 to 100 µM, respectively.

`Nc1nc2cc(-c3cccnc3F)ccc2c2[nH]c(CCCO)nc12` [Compound 158, 3-[4-amino-7-(2-fluoropyridin-3-yl)-1H-imidazo[4,5-c]quinolin-2-yl]propan-1-ol]: the concentration giving a half-maximal response (EC50) is greater than 100 µM on TLR7, greater than 100 µM at TLR8 and 1 to 20 µM on hNLRP3.

Regarding `CSc1ccc(-c2ccc3c(c2)nc(N)c2nc(CCCO)[nH]c23)cn1` [Compound 173, 3-[4-amino-7-(6-methylsulfanylpyridin-3-yl)-1H-imidazo[4,5-c]quinolin-2-yl]propan-1-ol], the concentration for a half-maximal effect (EC50) on TLR7, at TLR8 and at hNLRP3 was greater than 100 µM in each case.

On to `Cn1cc(-c2ccc3c(c2)nc(N)c2nc(CCCO)[nH]c23)cn1` [Compound 193, 3-[4-amino-7-(1-methylpyrazol-4-yl)-1H-imidazo[4,5-c]quinolin-2-yl]propan-1-ol], for which the concentration for a half-maximal effect (EC50) on TLR7 is greater than 100 µM; at TLR8 it was greater than 100 µM; on hNLRP3 it was 20 to 100 µM.

As for `Nc1nc2ccccc2c2[nH]c([C@H]3CC[C@H](O)CC3)nc12` [Compound 135], the EC50 was greater than 100 µM at TLR7, greater than 100 µM at TLR8 and 20 to 100 µM at hNLRP3.

On to `Nc1nc2cc(-c3cnc4ccccc4c3)ccc2c2[nH]c(CCCO)nc12` [Compound 191, 3-(4-amino-7-quinolin-3-yl-1H-imidazo[4,5-c]quinolin-2-yl)propan-1-ol], for which the concentration giving a half-maximal response (EC50) at TLR7, on TLR8 and at hNLRP3 was greater than 100 µM each time.

With `CN1CCC(c2nc3c(N)nc4ccccc4c3[nH]2)CC1` [Compound 228], the EC50 was greater than 100 µM at TLR7, greater than 100 µM at TLR8 and 20 to 100 µM on hNLRP3.

On to `Cc1ccccc1-c1ccc2c(c1)nc(N)c1nc(CCCO)[nH]c12` [Compound 199, 3-[4-amino-7-(2-methylphenyl)-1H-imidazo[4,5-c]quinolin-2-yl]propan-1-ol], for which the half-maximal effective concentration (EC50) at TLR7, on TLR8 and at hNLRP3 was greater than 100 µM in each case.
